Experimental data reported in US4323567A, “Arylmalonamido-1-oxadethiacephalosporins” (priority 1976, dated 1982).
Where two headings read alike, the source gives them in different places.

Columns and labels:
Assay in all cases: Minimal inhibitory concentration, nutrient agar plate
[1] = system: Escherichia coli H; assay type: cell-based; conditions: inoculum size 10^8, pH 7.0, read-out: Minimal inhibitory concentration
[2] = system: E. coli JC-2; assay type: cell-based; conditions: Escherichia coli, JC2, inoculum size 10^8, pH 7.0, read-out: Minimal inhibitory concentration
[3] = system: E. coli 377; assay type: cell-based, Escherichia coli; conditions: Escherichia coli, 377, inoculum size 10^8, pH 7.0, read-out: Minimal inhibitory concentration
[4] = system: E. coli 73; assay type: cell-based, Escherichia coli; conditions: Escherichia coli, 73, inoculum size 10^8, pH 7.0, read-out: Minimal inhibitory concentration
[5] = system: Serratia marsescens 13880; assay type: cell-based; conditions: Serratia, 13880, inoculum size 10^8, pH 7.0, read-out: Minimal inhibitory concentration
[6] = system: Klebsiella pneumoniae; assay type: cell-based; conditions: inoculum size 10^8, pH 7.0, read-out: Minimal inhibitory concentration
[7] = system: Klebsiella sp. 363; assay type: cell-based; conditions: inoculum size 10^8, pH 7.0, read-out: Minimal inhibitory concentration
[8] = system: Enterobacter cloacae 233; assay type: cell-based; conditions: Enterobacter cloacae, 233, inoculum size 10^8, pH 7.0, read-out: Minimal inhibitory concentration
[9] = system: Proteus mirabilis PR-4; assay type: cell-based; conditions: inoculum size 10^8, pH 7.0, read-out: Minimal inhibitory concentration
[10] = system: P. morganii No. 9; assay type: cell-based, Proteus morganii; conditions: Morganella morganii, NO.9, inoculum size 10^8, pH 7.0, read-out: Minimal inhibitory concentration
[11] = system: P. vulgaris CN-329; assay type: cell-based; conditions: Proteus vulgaris, CN329, inoculum size 10^8, pH 7.0, read-out: Minimal inhibitory concentration
[12] = system: Pseudomonas aeruginosa Denken; assay type: cell-based; conditions: inoculum size 10^8, pH 7.0, read-out: Minimal inhibitory concentration
[13] = system: Ps. aeruginosa 25619; assay type: cell-based, Pseudomonas aeruginosa; conditions: Pseudomonas aeruginosa, 25619, inoculum size 10^8, pH 7.0, read-out: Minimal inhibitory concentration
[14] = system: Ps. aeruginosa 24; assay type: cell-based, Pseudomonas aeruginosa; conditions: Pseudomonas aeruginosa, 24, inoculum size 10^8, pH 7.0, read-out: Minimal inhibitory concentration
[15] = ester, in the presence of 5% horse serum, sodium salt

| Compound | MIC ([1]; as sodium salt) [µg/mL] | MIC ([2]; as sodium salt) [µg/mL] | MIC ([3]; as sodium salt) [µg/mL] | MIC ([4]; as sodium salt) [µg/mL] | MIC ([5]; as sodium salt) [µg/mL] | MIC ([6]; as sodium salt) [µg/mL] | MIC ([7]; SP.363, as sodium salt) [µg/mL] | MIC ([8]; as sodium salt) [µg/mL] | MIC ([9]; PR4, as sodium salt) [µg/mL] | MIC ([10]; as sodium salt) [µg/mL] | MIC ([11]; as sodium salt) [µg/mL] | MIC ([12]; as sodium salt) [µg/mL] | MIC ([13]; as sodium salt) [µg/mL] | MIC ([14]; as sodium salt) [µg/mL] | also measured |
| --- | --- | --- | --- | --- | --- | --- | --- | --- | --- | --- | --- | --- | --- | --- | --- |
| CC1=C(C(=O)O)N2C(=O)[C@@H](NC(=O)C(N)c3ccccc3)[C@H]2OC1 (stereo partly drawn) [(1), 7β-(α-phenylglycinamido)3-methyl-1-oxadethia-3-cephem-4-carboxlic acid, reference compound] | > 100 | > 100 | > 100 | > 100 | > 100 | > 100 | > 100 | > 100 | > 100 | > 100 | > 100 | > 100 | > 100 | > 100 | – |
| O=C(O)Cn1nnnc1SCC1=C(C(=O)O)N2C(=O)[C@@H](NC(=O)C(C(=O)O)c3ccccc3)[C@H]2OC1 (stereo partly drawn) [Example III-10, 7β-(α-carboxy-α-phenylacetamido)-3-(1-carboxymethyltetrazol-5-yl)thiomethyl-1-oxadethia-3-cephem-4-carboxylic acid] | 0.78 | 3.13 | 0.25 | > 100 | 50 | 3.13 | > 100 | 12.5 | 0.78 | 0.78 | > 100 | > 100 | 100 | > 100 | – |
| O=C(O)Cn1nnnc1SCC1=C(C(=O)O)N2C(=O)[C@@H](NC(=O)C(C(=O)O)c3cccs3)[C@H]2OC1 (stereo partly drawn) [Example III-11, 7β-[α-(2-thienyl)-α-carboxyacetamido]-3-(1-carboxymethyltetrazol-5-yl)thiomethyl-1-oxadethia-3-cephem-4-carboxylic acid] | 0.78 | 12.5 | 6.25 | > 100 | 25 | 3.13 | > 100 | 25 | 1.56 | 1.56 | > 100 | > 100 | > 100 | – | – |
| Cn1nnnc1SCC1=C(C(=O)[O-])N2C(=O)[C@@H](NC(=O)C(C(=O)Oc3ccc4c(c3)CCC4)c3ccccc3)[C@H]2OC1.[Na+] (stereo partly drawn) [Example III-2, sodium 7β-[α-(5-indanyl)oxycarbonyl-α-phenylacetamido]-3-(1-methyltetrazol-5-yl)thiomethyl-1-oxadethia-3-cephem-4-carboxylate] | – | – | – | – | – | – | – | – | – | – | – | – | – | – | MIC [1, 15]: 0.1 µg/mL; MIC [2, 15]: 0.2 µg/mL; MIC [3, 15]: 0.2 µg/mL; MIC [4, 15]: > 100 µg/mL; MIC [5, 15]: 0.78 µg/mL; MIC [6, 15]: 0.2 µg/mL; MIC ([7]; SP.363, ester, in the presence of 5% horse serum, sodium salt): > 100 µg/mL; MIC [8, 15]: 0.39 µg/mL; MIC ([9]; PR4, ester, in the presence of 5% horse serum, sodium salt): 0.39 µg/mL; MIC [10, 15]: 0.39 µg/mL; MIC [11, 15]: 50 µg/mL; MIC [12, 15]: > 100 µg/mL; MIC [13, 15]: 6.25 µg/mL; MIC [14, 15]: > 100 µg/mL |
| Cc1nnc(SCC2=C(C(=O)O)N3C(=O)[C@@H](NC(=O)Cn4cnnn4)[C@H]3OC2)s1 [(3), 7β-(1tetrazolyl)acetamido-3-(2-methyl-1,3,4-thiadiazol-5-yl)thiomethl-1-oxadethia-3-cephem-4-carboxylic acid, reference compound] | 1.56 | 1.56 | 25 | > 100 | > 100 | 3.13 | > 100 | > 100 | 1.56 | 50 | > 100 | > 100 | > 100 | > 100 | – |
| Cn1nnnc1SCC1=C(C(=O)O)N2C(=O)[C@@H](NC(=O)C(C(=O)O)c3ccccc3)[C@H]2OC1 (stereo partly drawn) [Example III-1, 7β-(α-phenyl-α-carboxyacetamido)-3-(1-methyltetrazol-5-yl)thiomethyl-1-oxadethia-3-cephem-4-carboxylic acid] | 0.1 | 0.2 | 0.2 | > 100 | 0.78 | 0.2 | – | 0.39 | 0.39 | 0.39 | 100 | > 100 | 3.13 | > 100 | – |
